Source: ChEMBL document CHEMBL1201862, “PubChem BioAssay data set” (2004)
Active and inactive are the calls of the source.

What was measured:
[1] = molecular target: T1, Short transient receptor potential channel 4 (Mus musculus, UniProt Q9QUQ5); assay: TRPC4 inhibition under acetylcholine activation, SAR follow-up, cell-based, acetylcholine stimulus, HEK293 TRPC4, Fluo-4 (AID 492996); assay type: functional
T1 sequence (Q9QUQ5 whole entry): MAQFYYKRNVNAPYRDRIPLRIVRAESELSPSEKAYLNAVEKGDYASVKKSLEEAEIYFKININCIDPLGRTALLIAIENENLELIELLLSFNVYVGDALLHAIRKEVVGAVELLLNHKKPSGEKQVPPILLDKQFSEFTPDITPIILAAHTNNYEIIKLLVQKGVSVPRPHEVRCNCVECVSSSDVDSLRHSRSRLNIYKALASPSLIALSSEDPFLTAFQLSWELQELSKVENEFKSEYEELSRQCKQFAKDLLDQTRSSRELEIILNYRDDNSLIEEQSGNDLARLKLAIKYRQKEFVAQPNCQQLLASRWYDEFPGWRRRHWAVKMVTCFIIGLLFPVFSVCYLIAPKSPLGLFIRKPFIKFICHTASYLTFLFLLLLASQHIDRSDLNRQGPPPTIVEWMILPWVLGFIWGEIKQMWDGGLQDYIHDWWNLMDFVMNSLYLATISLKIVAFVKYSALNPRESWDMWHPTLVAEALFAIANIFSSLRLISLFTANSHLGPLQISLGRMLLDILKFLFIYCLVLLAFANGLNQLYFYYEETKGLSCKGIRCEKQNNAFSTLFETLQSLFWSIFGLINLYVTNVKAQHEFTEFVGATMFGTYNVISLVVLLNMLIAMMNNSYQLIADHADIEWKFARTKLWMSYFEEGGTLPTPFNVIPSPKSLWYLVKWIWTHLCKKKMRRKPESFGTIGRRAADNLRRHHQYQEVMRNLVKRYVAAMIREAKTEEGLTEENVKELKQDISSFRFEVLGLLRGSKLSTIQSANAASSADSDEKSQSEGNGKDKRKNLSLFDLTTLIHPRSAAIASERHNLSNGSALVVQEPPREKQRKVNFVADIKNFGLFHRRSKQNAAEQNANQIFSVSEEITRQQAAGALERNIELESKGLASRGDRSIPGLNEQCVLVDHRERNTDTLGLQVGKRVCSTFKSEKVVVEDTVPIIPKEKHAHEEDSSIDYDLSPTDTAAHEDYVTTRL

[2] = NIH-3T3 fibroblast cytotoxicity, dose response, cytotoxicity control, cell-based, fluorescence, Alamar Blue, secondary assay (AID 2327); assay type: functional;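 further: NIH-3T3 mouse fibroblasts cultured with fluconazole at 8 µg/mL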
[3] = C. albicans growth with fluconazole, confirmation, fluorescence, retest (AID 2467); assay type: functional, cell-based
[4] = molecular target: Serine/threonine-protein phosphatase (Candida dubliniensis (strain CD36 / CBS 7987 / NCPF 3949 / NRRLY-17841) (Yeast), UniProt B9W6M3); assay: calcineurin pathway inhibitors in yeast reporter, dose response, S. cerevisiae, CDRE-lacZ, luminescence, secondary (AID 2388); assay type: functional, cell-based;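 further: yeast reporter cells carrying a calcineurin-responsive lacZ construct stimulated with calcium chloride; luminescent beta-galactosidase reporter signal in whole cells rather than isolated phosphatase activity; potency for inhibition where a drop in reporter signal means calcineurin blockade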
Sequence of Serine/threonine-protein phosphatase (B9W6M3 whole entry): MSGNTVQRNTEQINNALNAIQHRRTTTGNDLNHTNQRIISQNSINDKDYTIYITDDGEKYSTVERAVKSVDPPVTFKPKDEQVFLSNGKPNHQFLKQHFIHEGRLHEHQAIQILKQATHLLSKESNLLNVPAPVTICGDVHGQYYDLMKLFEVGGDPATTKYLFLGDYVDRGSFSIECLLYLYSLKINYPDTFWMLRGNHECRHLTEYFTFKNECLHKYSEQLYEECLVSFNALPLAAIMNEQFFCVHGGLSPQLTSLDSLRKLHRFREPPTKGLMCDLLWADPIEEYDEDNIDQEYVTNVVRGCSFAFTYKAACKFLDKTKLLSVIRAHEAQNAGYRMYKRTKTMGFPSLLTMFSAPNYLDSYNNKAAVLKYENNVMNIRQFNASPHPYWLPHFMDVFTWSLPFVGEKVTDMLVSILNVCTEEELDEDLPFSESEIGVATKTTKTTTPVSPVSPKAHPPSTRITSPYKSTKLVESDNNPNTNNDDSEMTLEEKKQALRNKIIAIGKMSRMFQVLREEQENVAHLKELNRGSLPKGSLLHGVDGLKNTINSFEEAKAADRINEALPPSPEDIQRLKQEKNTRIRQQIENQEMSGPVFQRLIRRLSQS

[5] = THP-1 cell cytotoxicity, dose response, cytotoxicity control for non-replicating M. tuberculosis project (AID 489025); assay type: functional
[6] = HepG2 cell cytotoxicity, dose response, cytotoxicity control for non-replicating M. tuberculosis project (AID 489018); assay type: functional; conditions: Mycobacterium tuberculosis
[7] = Vero E6 cell cytotoxicity, dose response, cytotoxicity control for non-replicating M. tuberculosis project, secondary assay (AID 492998); assay type: functional, VeroE6; conditions: Vero C1008
cells = assay type: functional
[8] = molecular target: ATP-dependent molecular chaperone HSP82 (Candida albicans (strain WO-1) (Yeast), UniProt C4YTQ8); assay: loss of DOC-induced GRE-beta-galactosidase reporter signal, dose response, Hsp90 inhibitor project, S. cerevisiae, luminescence (AID 2400); assay type: functional, cell-based;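 further: beta-galactosidase luminescence from glucocorticoid response element reporter as proxy for Hsp90 function; inhibitor potency where signal loss means Hsp90 inhibition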
Sequence of ATP-dependent molecular chaperone HSP82 (C4YTQ8 whole entry): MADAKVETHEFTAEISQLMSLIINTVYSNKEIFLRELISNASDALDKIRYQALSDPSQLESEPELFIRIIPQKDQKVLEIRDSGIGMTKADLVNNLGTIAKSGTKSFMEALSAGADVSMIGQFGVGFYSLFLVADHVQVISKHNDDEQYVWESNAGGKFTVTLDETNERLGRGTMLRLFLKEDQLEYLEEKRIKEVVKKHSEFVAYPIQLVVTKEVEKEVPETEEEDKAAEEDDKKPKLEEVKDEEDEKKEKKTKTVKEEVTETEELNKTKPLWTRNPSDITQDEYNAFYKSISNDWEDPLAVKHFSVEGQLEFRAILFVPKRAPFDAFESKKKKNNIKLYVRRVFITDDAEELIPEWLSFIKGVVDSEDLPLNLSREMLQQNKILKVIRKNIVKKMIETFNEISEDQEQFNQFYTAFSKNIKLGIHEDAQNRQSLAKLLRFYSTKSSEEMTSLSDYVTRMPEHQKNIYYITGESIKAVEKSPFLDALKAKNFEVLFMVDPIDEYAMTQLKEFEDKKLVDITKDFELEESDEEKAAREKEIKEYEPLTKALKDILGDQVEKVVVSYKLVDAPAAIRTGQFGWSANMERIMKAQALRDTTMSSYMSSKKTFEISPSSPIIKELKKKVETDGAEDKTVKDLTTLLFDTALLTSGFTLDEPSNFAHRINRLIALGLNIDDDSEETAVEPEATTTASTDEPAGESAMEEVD

MDCK [9] = assay: antiviral activity against H1N1 influenza, dose response, cell-based, strain KY180 (AID 540254); assay type: functional; conditions: Canis lupus familiaris
Vero = assay: Vero E6 cell cytotoxicity, dose response, cytotoxicity control (AID 540298); assay type: functional; conditions: Chlorocebus sabaeus
MDCK [10] = assay: MDCK cell cytotoxicity, dose response, cytotoxicity control (AID 540296); assay type: functional; conditions: Canis lupus familiaris
MDCK [11] = assay: antiviral activity against H1N1 influenza, dose response, cell-based, strain KY136 (AID 540257); assay type: functional; conditions: Canis lupus familiaris
Cysteine protease ATG4B = Cysteine protease ATG4B (Homo sapiens, UniProt Q9Y4P1); assay type: functional;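 further: Fluorescence-based dose-response confirmation assay measuring inhibition of ATG4B activity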
Sequence of Cysteine protease ATG4B (Q9Y4P1 whole entry): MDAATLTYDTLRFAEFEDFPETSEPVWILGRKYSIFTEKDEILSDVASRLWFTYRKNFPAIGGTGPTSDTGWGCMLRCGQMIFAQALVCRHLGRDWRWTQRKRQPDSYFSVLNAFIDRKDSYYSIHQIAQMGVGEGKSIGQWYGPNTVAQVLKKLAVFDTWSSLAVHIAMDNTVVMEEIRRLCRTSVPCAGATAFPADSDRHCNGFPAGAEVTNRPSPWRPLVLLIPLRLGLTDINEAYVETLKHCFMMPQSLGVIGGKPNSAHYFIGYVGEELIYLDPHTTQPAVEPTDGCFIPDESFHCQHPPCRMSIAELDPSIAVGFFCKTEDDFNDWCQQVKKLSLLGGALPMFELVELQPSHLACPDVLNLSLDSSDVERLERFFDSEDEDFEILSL

Phospholipase A2 = Phospholipase A2 (Homo sapiens, UniProt P04054); assay type: functional;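 further: confirmatory dose-response counterscreen on phospholipase A2, testing hits that came from an ultra-high-throughput screen for ATG4B inhibitors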
Sequence of Phospholipase A2 (P04054 whole entry): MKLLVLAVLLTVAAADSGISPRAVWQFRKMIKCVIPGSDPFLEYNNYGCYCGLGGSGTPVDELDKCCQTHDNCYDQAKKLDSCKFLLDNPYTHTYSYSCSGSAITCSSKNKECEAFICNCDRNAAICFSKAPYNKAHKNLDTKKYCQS

[12] = growth suppression of PTEN-null colon cells, dose response, cell-based, HCT116 PTEN knockout (AID 1047); assay type: functional;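 further: HCT116 colon tumor cells with PTEN knocked out; cells exposed to compound for 60 hours before readout; potency for loss of cell viability measured by luminescence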
[13] = growth suppression of beta-catenin-knockout colon cells, dose response, cell-based, HCT116, human colon tumor (AID 1045); assay type: functional;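 further: HCT116 colon tumor cells with beta catenin knocked out; cells exposed to compound for 60 hours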
[14] = molecular target: T2, Microphthalmia-associated transcription factor (Homo sapiens, UniProt O75030); assay: TRPM1 promoter luciferase signal decrease, dose response, MITF inhibitor project, cell-based, SK-MEL-5, cherry-picked, set 3 (AID 493073); assay type: functional
T2 sequence (O75030 whole entry): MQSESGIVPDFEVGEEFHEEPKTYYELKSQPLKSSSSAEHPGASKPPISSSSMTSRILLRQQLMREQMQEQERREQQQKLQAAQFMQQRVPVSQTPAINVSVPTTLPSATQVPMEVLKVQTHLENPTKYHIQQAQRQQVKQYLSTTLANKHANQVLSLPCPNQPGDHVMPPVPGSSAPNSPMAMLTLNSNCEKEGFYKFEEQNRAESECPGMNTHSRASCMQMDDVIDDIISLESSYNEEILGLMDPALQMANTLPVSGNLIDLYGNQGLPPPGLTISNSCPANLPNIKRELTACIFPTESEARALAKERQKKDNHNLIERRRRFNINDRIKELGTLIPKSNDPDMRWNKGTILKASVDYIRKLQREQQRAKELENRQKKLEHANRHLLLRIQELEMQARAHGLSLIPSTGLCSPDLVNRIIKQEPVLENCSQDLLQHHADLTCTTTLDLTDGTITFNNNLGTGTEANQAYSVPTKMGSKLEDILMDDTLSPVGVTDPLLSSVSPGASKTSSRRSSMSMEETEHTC

A-375 = assay: A375 melanoma cell viability reduction, dose response, counter-screen for MITF modulator project, cherry-pick samples, set 2 (AID 540335); assay type: functional, cell-based; conditions: Homo sapiens
Paired box protein Pax-8 = Paired box protein Pax-8 (Homo sapiens, UniProt Q06710); assay: inhibitors of PAX8-driven TPO luciferase reporter, dose response, RMG-I cells, cherry-pick (AID 687027); assay type: functional, cell-based;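 further: luciferase reporter driven by Pax8 target thyroperoxidase promoter measured by SteadyGlo luminescence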
Sequence of Paired box protein Pax-8 (Q06710 whole entry): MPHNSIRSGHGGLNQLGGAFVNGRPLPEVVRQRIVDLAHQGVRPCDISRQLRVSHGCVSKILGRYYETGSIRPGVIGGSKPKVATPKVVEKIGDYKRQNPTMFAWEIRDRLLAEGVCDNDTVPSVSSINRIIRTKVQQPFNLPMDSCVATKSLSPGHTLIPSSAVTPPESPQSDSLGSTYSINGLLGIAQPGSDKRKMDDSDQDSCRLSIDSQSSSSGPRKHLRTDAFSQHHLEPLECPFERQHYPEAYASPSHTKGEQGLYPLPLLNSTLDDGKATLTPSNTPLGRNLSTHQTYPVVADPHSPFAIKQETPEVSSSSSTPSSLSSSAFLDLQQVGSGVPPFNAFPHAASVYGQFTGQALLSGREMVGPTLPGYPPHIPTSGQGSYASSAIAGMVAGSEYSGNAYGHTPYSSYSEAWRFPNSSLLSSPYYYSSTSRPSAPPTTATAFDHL

[15] = PAX2 cell-based inhibition, dose response, selectivity assay for PAX8 inhibitor project, plate reader, dry powder samples (AID 743048); assay type: functional;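 further: HEK293 cells carrying a WT1 promoter luciferase reporter driven by expressed Pax2; potency is for inhibition of Pax2 driven reporter signal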
[16] = cytotoxicity in COV362 ovarian cancer cells, dose response, cytotoxicity control for PAX8 inhibitor project, cell-based, plate reader, dry powder, SA12 (AID 743144); assay type: functional
[17] = IOSE-T80 ovarian epithelial cell cytotoxicity, dose response, cytotoxicity control for PAX8 inhibitor project, plate reader, dry powder samples (AID 743045); assay type: functional, cell-based
[18] = A2780 ovarian cancer cell cytotoxicity, dose response, cytotoxicity control, plate reader, dry powder samples (AID 743046); assay type: functional, cell-based
[19] = NIH:OVCAR-3 ovarian cancer cell cytotoxicity, dose response, PAX8 inhibitor project, plate reader, dry powder samples (AID 743044); assay type: functional, cell-based
[20] = PAX5 activity inhibitors, dose response, selectivity assay for PAX8 inhibitor project, cell-based, plate reader, dry powder samples (AID 743047); assay type: functional;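 further: HEK293 cells carrying a Pax5 driven CD19 promoter luciferase reporter; potency of inhibitors that lower reporter luminescence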
[21] = IGROV1 ovarian cancer cell cytotoxicity, dose response, PAX8 inhibitor project, plate reader, dry powder samples (AID 743043); assay type: functional, cell-based; conditions: IGROV-1
[22] = cytotoxicity in OVCAR4 cells, dose response, cytotoxicity control for PAX8 inhibitor project, cell-based, plate reader, dry powder, SA11 (AID 743150); assay type: functional; conditions: OVCAR-4
[23] = cytotoxicity in COV434 cells, dose response, cytotoxicity control for PAX8 inhibitor project, cell-based, plate reader, dry powder, SA7 (AID 743145); assay type: functional
[24] = cytotoxicity in OV-90 ovarian cancer cells, dose response, PAX8 inhibitor project, cell-based, plate reader, dry powder, SA8 (AID 743149); assay type: functional
[25] = cytotoxicity dependent on PAX8, dose response, cell-based, plate reader, dry powder (AID 743049); assay type: functional

Cc1cc(N2CCN(C)CC2)nc2ccccc12
IC50 [1]: 31.7 µM (active)

Cc1ccc(C)c(-c2nnc(NC(=O)c3ccco3)o2)c1
EC50 [2]: > 160 µM (inactive) | EC50 [3]: 0.695 µM (active) | EC50 [4]: > 180 µM (inactive) | CC50 [5]: > 40 µM (active) | CC50 [6]: > 20 µM (active) | CC50 [7]: 15.8 µM (active) | IC50 (cells): 2.58 µM (active) | EC50 [8]: > 160 µM (inactive)

Cc1nnc(NC(=O)CSc2nccn2-c2cccc(C)c2C)s1
IC50 (MDCK [9]): 10.4 µM (active) | CC50 (Vero): > 40 µM (active) | CC50 (MDCK [10]): > 40 µM (active) | IC50 (MDCK [11]): 5.1 µM (active)

COc1ccc(C(=O)Nc2cc(C(=O)c3ccccc3)c(C)oc2=O)cc1
IC50 (Cysteine protease ATG4B): 11.3 µM (active) | IC50 (Phospholipase A2): 11.7 µM (active)

COc1ccc(Br)cc1/C=C/C(=O)c1ccc(NC(C)=O)cc1
EC50 [12]: 1.12 µM (active) | EC50 [13]: 1.04 µM (active) | AC50 [14]: 4.64 µM (active) | AC50 (A-375): 33.2 µM (active) | AC50 (Paired box protein Pax-8): 3.8 µM (active) | AC50 [15]: 7.73 µM (active) | AC50 [16]: 8.41 µM (active) | AC50 [17]: 9.22 µM (active) | AC50 [18]: 17.6 µM (active) | AC50 [19]: 8.78 µM (active) | AC50 [20]: 7.08 µM (active) | AC50 [21]: 15 µM (active) | AC50 [22]: 13.7 µM (active) | AC50 [23]: 13.6 µM (active) | AC50 [24]: 17.9 µM (active) | AC50 [25]: 11.7 µM (active)
